This note sets out measurements from patent publication US20230295142A1, “NOVEL COMPOUNDS AS HISTONE DEACETYLASE 6 INHIBITOR, AND PHARMACEUTICAL COMPOSITION COMPRISING THE SAME” (CHONG KUN DANG PHARMACEUTICAL CORP., priority 2020, published 2023).

The target in one test is HDAC6 human recombinant (Homo sapiens (Human), UniProt Q9UBN7). In words: HDAC6 enzyme activity inhibition (fluorimetric, in vitro). Format: biochemical. The conditions noted are these: samples at 0.1, 1, 10, 100 and 1000 nM; 37° C. 60 minutes. How it is done: (§1) A HDAC enzyme inhibitory capacity of a test material was measured by using HDAC1 Fluorimetric Drug Discovery Assay Kit (Enzolifesciences: BML-AK511) and HDAC6 human recombinant (Calbiochem: 382180). For a HDAC1 assay, samples were treated at a concentration of 100, 1000 and 10000 nM. For a HDAC6 assay, samples were treated at a concentration of 0.1, 1, 10, 100 and 1000 nM. After the above sample treatment, a reaction was continued at 37° C. for 60 minutes, treated with a developer, and subjected to reaction at 37° C. for 30 minutes, after which fluorescence intensity (Ex 390, Em 460) was measured by using FlexStatin3 (Molecular device).
Sequence of HDAC6 human recombinant (Q9UBN7 whole entry): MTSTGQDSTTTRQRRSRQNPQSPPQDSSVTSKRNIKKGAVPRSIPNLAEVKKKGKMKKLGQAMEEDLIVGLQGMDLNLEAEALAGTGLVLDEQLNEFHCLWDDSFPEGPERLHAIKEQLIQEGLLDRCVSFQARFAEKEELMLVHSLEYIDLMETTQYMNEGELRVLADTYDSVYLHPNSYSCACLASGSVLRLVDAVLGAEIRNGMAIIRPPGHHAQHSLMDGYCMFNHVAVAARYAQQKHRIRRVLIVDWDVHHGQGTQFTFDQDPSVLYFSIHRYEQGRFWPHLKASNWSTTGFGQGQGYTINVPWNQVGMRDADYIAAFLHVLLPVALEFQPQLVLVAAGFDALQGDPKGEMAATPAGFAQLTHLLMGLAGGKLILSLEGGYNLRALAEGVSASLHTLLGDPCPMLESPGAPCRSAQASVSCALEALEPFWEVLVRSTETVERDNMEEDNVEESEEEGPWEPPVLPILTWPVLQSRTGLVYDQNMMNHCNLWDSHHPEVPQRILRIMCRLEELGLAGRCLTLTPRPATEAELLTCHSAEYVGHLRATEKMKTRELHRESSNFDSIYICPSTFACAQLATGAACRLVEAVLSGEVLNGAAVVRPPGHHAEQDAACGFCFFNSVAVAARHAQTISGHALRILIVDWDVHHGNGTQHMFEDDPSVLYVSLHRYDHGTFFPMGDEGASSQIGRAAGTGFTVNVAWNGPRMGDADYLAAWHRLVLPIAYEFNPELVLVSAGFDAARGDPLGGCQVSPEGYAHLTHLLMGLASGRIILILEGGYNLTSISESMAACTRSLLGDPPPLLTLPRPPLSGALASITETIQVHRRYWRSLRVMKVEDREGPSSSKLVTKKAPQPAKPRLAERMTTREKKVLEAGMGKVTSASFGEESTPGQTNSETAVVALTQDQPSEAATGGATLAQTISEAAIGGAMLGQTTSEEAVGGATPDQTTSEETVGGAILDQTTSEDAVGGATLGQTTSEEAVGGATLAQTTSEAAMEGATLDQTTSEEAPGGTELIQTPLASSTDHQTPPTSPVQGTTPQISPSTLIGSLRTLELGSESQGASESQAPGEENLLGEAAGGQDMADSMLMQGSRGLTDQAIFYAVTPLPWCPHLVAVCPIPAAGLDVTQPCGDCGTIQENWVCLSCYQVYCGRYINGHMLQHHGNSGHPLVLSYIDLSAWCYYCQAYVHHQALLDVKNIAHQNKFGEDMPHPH

In the next test the target is HDAC1 (Homo sapiens (Human), UniProt Q13547). As to the kind of experiment: HDAC1 enzyme activity inhibition (HDAC1 Fluorimetric Drug Discovery Assay Kit). Format: biochemical. The conditions noted are these: samples at 100, 1000 and 10000 nM; 37° C. 60 minutes. How it is done: as §1
Sequence of HDAC1 (Q13547 whole entry): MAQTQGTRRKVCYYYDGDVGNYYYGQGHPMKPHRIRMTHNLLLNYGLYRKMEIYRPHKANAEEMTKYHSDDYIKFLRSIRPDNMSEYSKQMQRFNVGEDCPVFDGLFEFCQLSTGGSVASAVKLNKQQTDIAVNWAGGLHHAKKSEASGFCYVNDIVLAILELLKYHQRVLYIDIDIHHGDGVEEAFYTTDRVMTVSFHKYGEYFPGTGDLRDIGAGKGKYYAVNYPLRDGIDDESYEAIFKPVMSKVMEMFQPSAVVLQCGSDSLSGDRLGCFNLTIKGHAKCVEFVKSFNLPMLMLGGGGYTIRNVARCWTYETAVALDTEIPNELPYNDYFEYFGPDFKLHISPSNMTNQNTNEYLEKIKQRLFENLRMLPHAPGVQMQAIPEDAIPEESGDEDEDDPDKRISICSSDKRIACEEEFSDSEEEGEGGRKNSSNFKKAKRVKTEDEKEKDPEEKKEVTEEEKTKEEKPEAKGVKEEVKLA

pIC50: −log10 of the molar value. A value given as a limit tells only on which side of the number the result lay.

One may read the pIC50 as the negative decadic logarithm of the IC50, by convention in mol/L. `CC1(C)C(=O)N(Cc2ccc(-c3nnc(C(F)F)o3)cn2)C(=O)N1c1ccc(-c2ccncc2)cc1` [Compound 26, 3-((5-(5-(difluoromethyl)-1,3,4-oxadiazol-2-yl)pyridin-2-yl)methyl)-5,5-dimethyl-1-(4-(pyridin-4-yl)phenyl)imidazolidin-2,4-dione]: the pIC50 was 7.32 at HDAC6 human recombinant and under 5.00 on HDAC1.
On to `CC1(C)C(=O)N(Cc2ccc(-c3nnc(C(F)F)o3)cn2)C(=O)N1c1ccc(-c2cccnc2)cc1` [Compound 27, 3-((5-(5-(difluoromethyl)-1,3,4-oxadiazol-2-yl)pyridin-2-yl)methyl)-5,5-dimethyl-1-(4-(pyridin-3-yl)phenyl)imidazolidin-2,4-dione], for which the pIC50 is 7.26 at HDAC6 human recombinant and under 5.00 at HDAC1.
On the same counts, the results for `CC1(C)C(=O)N(Cc2ccc(-c3nnc(C(F)F)o3)cn2)C(=O)N1c1ccc(-c2cccc(F)c2)cc1` [Compound 28, 3-((5-(5-(difluoromethyl)-1,3,4-oxadiazol-2-yl)pyridin-2-yl)methyl)-1-(3′-fluoro-[1,1′-biphenyl]-4-yl)-5,5-dimethylimidazolidin-2,4-dione] are 6.77 and under 5.00.
`CC1(C)C(=O)N(Cc2ccc(-c3nnc(C(F)F)o3)cn2)C(=O)N1c1ccc(-c2ccccc2F)cc1` [Compound 29, 3-((5-(5-(difluoromethyl)-1,3,4-oxadiazol-2-yl)pyridin-2-yl)methyl)-1-(2′-fluoro-[1,1′-biphenyl]-4-yl)-5,5-dimethylimidazolidin-2,4-dione]: the pIC50 on HDAC6 human recombinant was 6.78; against HDAC1, under 5.00.
Regarding `CC(C)(C)OC(=O)n1ccc2c(N3C(=O)N(Cc4ccc(-c5nnc(C(F)F)o5)cn4)C(=O)C3(C)C)cccc21` [Compound 30, tert-butyl 4-(3-((5-(5-(difluoromethyl)-1,3,4-oxadiazol-2-yl)pyridin-2-yl)methyl)-5,5-dimethyl-2,4-dioxoimidazolidin-1-yl)-1H-indol-1-carboxylate], the pIC50 at HDAC6 human recombinant is 6.24; against HDAC1 it was under 5.00.
Regarding `CC(C)(C)OC(=O)N1CCc2c1cccc2N1C(=O)N(Cc2ccc(-c3nnc(C(F)F)o3)cn2)C(=O)C1(C)C` [Compound 31, tert-butyl 4-(3-((5-(5-(difluoromethyl)-1,3,4-oxadiazol-2-yl)pyridin-2-yl)methyl)-5,5-dimethyl-2,4-dioxoimidazolidin-1-yl)indolin-1-carboxylate], the pIC50 on HDAC6 human recombinant was 6.50; against HDAC1, under 5.00.
For the molecule `CC1(C)C(=O)N(Cc2ccc(-c3nnc(C(F)F)o3)cn2)C(=O)N1c1cccc2[nH]ccc12` [Compound 32, 3-((5-(5-(difluoromethyl)-1,3,4-oxadiazol-2-yl)pyridin-2-yl)methyl)-1-(1H-indol-4-yl)-5,5-dimethylimidazolidin-2,4-dione], the pIC50 was 7.26 at HDAC6 human recombinant and under 5.00 on HDAC1.
Take `CC1(C)C(=O)N(Cc2ccc(-c3nnc(C(F)F)o3)cn2)C(=O)N1c1cccc2c1CCN2` [Compound 33, 3-((5-(5-(difluoromethyl)-1,3,4-oxadiazol-2-yl)pyridin-2-yl)methyl)-1-(indolin-4-yl)-5,5-dimethylimidazolidin-2,4-dione]: the pIC50 on HDAC6 human recombinant is 7.24; against HDAC1 it was under 5.00.
For the molecule `CC1(C)C(=O)N(Cc2ccc(-c3nnc(C(F)F)o3)cn2)C(=O)N1c1cccc([N+](=O)[O-])c1` [Compound 34, 3-((5-(5-(difluoromethyl)-1,3,4-oxadiazol-2-yl)pyridin-2-yl)methyl)-5,5-dimethyl-1-(3-nitrophenyl)imidazolidin-2,4-dione], the pIC50 at HDAC6 human recombinant was 7.34; at HDAC1, under 5.00.
As for `CC1(C)C(=O)N(Cc2ccc(-c3nnc(C(F)F)o3)cn2)C(=O)N1c1cccc(N)c1` [Compound 35, 1-(3-aminophenyl)-3-((5-(5-(difluoromethyl)-1,3,4-oxadiazol-2-yl)pyridin-2-yl)methyl)-5,5-dimethylimidazolidin-2,4-dione], the pIC50 is 7.28 at HDAC6 human recombinant and under 5.00 at HDAC1.
In the case of `CC(=O)Nc1cccc(N2C(=O)N(Cc3ccc(-c4nnc(C(F)F)o4)cn3)C(=O)C2(C)C)c1` [Compound 36, N-(3-(3-((5-(5-(difluoromethyl)-1,3,4-oxadiazol-2-yl)pyridin-2-yl)methyl)-5,5-dimethyl-2,4-dioxoimidazolidin-1-yl)phenyl)acetamide], the pIC50 on HDAC6 human recombinant is 7.46; against HDAC1, under 5.00.
Take `CC(=O)N1CCc2c1cccc2N1C(=O)N(Cc2ccc(-c3nnc(C(F)F)o3)cn2)C(=O)C1(C)C` [Compound 37, 1-(1-acetylindolin-4-yl)-3-((5-(5-(difluoromethyl)-1,3,4-oxadiazol-2-yl)pyridin-2-yl)methyl)-5,5-dimethylimidazolidin-2,4-dione]: the values for the pIC50 on HDAC6 human recombinant and at HDAC1 were 7.17 and under 5.00, respectively.
